Where two headings read alike, the source gives them in different places.
Columns and labels:
[1] = molecular target: T1, HCV NS5B polymerase 1b BK strain (Hepatitis C virus genotype 1b, UniProt P26663); assay: HCV NS5B polymerase enzymatic inhibition assay, strain 1b BK; format: biochemical; conditions: enzyme, strain 1b BK; read-out: HCV Polymerase Strain 1b BK IC50
T1 construct: six-histidine tag; made in house; host or cells: E. coli
Summary of the method: (§1)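 E. coli-expressed NS5B (residues 1-570, His-tagged) transcribed a 2.1 kb HCV 1b negative-strand 3′-end RNA template (5 nM) with 20 μM CTP, 20 μM ATP and 0.284 μM [3H]UTP for 3 h at 30° C. Spermine-precipitated RNA was filter-captured and counted by scintillation; IC50 from nonlinear regression.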

[2] = test system: HCV 1b-BB7 subgenomic replicon; assay: microbe, parasite or virus in culture; format: cell-based, HCV genotype 1b; conditions: Hepatitis C virus, stable replicon
[3] = test system: chimeric replicon with 2a-J6CF-derived NS5B; assay: microbe, parasite or virus in culture; format: cell-based, HCV genotype 2a; conditions: Hepatitis C virus, read-out: 2a chimera 5% FBS EC50
[4] = test system: chimeric replicon with genotype 4a NS5B; assay: microbe, parasite or virus in culture; format: cell-based, HCV genotype 4a; conditions: Hepatitis C virus, read-out: 4a chimera 5% FBS EC50
[5] = test system: chimeric replicon with genotype 2b NS5B; assay: microbe, parasite or virus in culture; format: cell-based, HCV genotype 2b; conditions: Hepatitis C virus, read-out: 2b chimera 5% FBS EC50
[6] = molecular target: T2, HCV NS5B polymerase 1a-H77 (Hepatitis C virus genotype 1a, UniProt P27958); assay: biochemical; parameters: species or system HCV genotype 1a; conditions: enzyme, strain 1a H77; read-out: HCV Polymerase Strain 1a H77 IC50
T2 construct: six-histidine tag; made in house; host or cells: E. coli
T2 sequence (P27958 2421-2990): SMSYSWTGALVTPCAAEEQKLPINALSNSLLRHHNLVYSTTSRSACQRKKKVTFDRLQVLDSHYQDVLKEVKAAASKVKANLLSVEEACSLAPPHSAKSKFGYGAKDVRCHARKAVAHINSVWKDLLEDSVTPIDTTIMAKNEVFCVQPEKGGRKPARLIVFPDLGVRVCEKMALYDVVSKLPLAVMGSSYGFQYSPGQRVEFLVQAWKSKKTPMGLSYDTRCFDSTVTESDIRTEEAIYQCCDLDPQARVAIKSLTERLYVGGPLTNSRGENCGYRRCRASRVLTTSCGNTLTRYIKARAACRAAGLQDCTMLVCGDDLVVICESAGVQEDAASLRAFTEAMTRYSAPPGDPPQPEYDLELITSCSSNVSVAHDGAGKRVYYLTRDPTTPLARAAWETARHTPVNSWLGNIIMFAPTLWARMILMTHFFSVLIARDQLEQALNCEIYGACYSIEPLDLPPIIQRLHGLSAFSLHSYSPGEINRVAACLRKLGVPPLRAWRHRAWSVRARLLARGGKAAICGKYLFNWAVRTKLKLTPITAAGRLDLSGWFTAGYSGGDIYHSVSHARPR
Summary of the method: as §1

[7] = molecular target: T3, HCV NS5B polymerase 1a-H77-C316Y (Hepatitis C virus genotype 1a, UniProt P27958, C2736Y); assay: biochemical; parameters: species or system HCV genotype 1a
T3 construct: six-histidine tag; made in house; host or cells: E. coli
T3 sequence (P27958 2421-2990 C2736Y): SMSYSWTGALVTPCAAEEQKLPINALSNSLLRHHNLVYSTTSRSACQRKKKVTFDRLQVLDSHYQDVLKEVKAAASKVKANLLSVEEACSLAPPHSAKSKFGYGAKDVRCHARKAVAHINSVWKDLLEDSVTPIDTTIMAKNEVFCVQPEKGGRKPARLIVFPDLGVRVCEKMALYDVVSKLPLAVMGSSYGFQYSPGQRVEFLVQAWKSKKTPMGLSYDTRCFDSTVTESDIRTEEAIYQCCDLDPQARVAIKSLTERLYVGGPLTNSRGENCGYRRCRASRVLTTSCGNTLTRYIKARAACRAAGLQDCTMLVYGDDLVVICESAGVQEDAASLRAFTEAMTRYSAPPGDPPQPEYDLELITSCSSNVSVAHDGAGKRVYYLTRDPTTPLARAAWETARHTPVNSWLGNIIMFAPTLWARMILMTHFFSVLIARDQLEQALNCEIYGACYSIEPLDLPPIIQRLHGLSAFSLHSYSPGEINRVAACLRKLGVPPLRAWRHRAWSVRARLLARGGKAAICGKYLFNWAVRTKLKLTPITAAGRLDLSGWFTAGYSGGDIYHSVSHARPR
Summary of the method: as §1

[8] = test system: HCV NS5B polymerase 1a-H77-C316Y; assay: biochemical; parameters: species or system HCV genotype 1a; conditions: ratio of enzyme IC50s, 1a H77-C316Y / 1a H77
Summary of the method: as §1

[9] = test system: chimeric replicon with genotype 3a NS5B; assay: microbe, parasite or virus in culture; format: cell-based, HCV genotype 3a; conditions: Hepatitis C virus, read-out: 3a chimera 5% FBS EC50
[10] = test system: HCV 1a-H77 subgenomic replicon; assay: microbe, parasite or virus in culture; format: cell-based, HCV genotype 1a; conditions: Hepatitis C virus, stable replicon
[11] = strain 1b BB7, 5% FBS + 40% human plasma, read-out: 1b BB7 5% FBS + 40% Human Plasma EC50
[12] = strain 1b BB7, 5% FBS, no human plasma, read-out: 1b BB7 5% FBS EC50
[13] = strain 1b BB7, 5% FBS, read-out: 1b BB7 5% FBS EC50
[14] = 5% FBS, absence of human plasma, read-out: Stable Replicon 1a H77 5% FBS EC50
[15] = strain 1a H77, 5% FBS + 40% human plasma, read-out: 1a H77 5% FBS + 40% Human Plasma EC50
[16] = strain 1a H77, 5% FBS, no human plasma, read-out: 1a H77 5% FBS EC50
[17] = strain 1a H77, 5% FBS, read-out: 1a H77 5% FBS EC50

T1 sequence (P26663 2420-2989): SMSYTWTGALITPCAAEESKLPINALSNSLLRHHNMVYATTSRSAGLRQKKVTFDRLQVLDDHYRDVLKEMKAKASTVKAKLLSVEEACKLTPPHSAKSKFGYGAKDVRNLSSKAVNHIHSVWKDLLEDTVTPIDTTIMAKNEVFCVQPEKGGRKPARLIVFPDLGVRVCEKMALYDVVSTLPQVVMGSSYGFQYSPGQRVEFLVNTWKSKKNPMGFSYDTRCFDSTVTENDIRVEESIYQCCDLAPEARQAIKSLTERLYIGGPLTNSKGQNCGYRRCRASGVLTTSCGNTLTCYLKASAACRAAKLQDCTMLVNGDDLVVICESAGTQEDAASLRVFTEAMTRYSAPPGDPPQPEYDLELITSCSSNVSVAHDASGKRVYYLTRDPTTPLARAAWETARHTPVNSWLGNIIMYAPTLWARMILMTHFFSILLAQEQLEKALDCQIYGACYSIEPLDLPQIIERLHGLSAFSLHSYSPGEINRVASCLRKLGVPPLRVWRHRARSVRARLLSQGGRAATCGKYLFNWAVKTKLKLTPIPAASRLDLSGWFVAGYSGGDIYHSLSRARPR

| Structure (SMILES) | IC50 [1] [µM] | EC50 [2, 11] [µM] | EC50 [2, 12] [µM] | EC50 [2, 13] [µM] | EC50 [3] [µM] | EC50 [4] [µM] | EC50 [5] [µM] | IC50 [6] [µM] | IC50 [7] [µM] | C316Y/1a Fold Resistance [8] [fold] | EC50 [9] [µM] | EC50 [10, 14] [µM] | EC50 [10, 15] [µM] | EC50 [10, 16] [µM] | EC50 [10, 17] [µM] |
| --- | --- | --- | --- | --- | --- | --- | --- | --- | --- | --- | --- | --- | --- | --- | --- |
| CS(=O)(=O)N(CCN1CCOCC1)c1cc2oc(-c3ccc(F)cc3)c(-c3ncc[nH]3)c2cc1C1CC1 [Example 58, N-[5-cyclopropyl-2-(4-fluorophenyl)-3-(1H-imidazol-2-yl)-1-benzofuran-6-yl]-N-[2-(morpholin-4-yl)ethyl]methanesulfonamide] | 0.029 | 0.193 | 0.0119 | 0.0119 | 0.0789 | 0.13 | 0.13 | 0.0073 | 0.133 | 18 | 0.0098 | 0.0218 | 0.333 | 0.0218 | 0.0218 |
| CN(C)CCCN(c1cc2oc(-c3ccc(F)cc3)c(-c3ncc[nH]3)c2cc1C1CC1)S(C)(=O)=O [Example 59, N-[5-cyclopropyl-2-(4-fluorophenyl)-3-(1H-imidazol-2-yl)-1-benzofuran-6-yl]-N-[3-(dimethylamino)propyl]methanesulfonamide] | 0.056 | 0.02 | 0.0112 | 0.0112 | 0.065 | 0.424 | 0.127 | 0.0134 | 1.5 | 112 | 0.0103 | 0.0851 | 0.159 | 0.0851 | 0.0851 |
| CS(=O)(=O)N(CCCN1CCOCC1)c1cc2oc(-c3ccc(F)cc3)c(-c3ncc[nH]3)c2cc1C1CC1 [Example 60, N-[5-cyclopropyl-2-(4-fluorophenyl)-3-(1H-imidazol-2-yl)-1-benzofuran-6-yl]-N-[3-(morpholin-4-yl)propyl]methanesulfonamide] | 0.02 | 0.0995 | 0.0086 | 0.0086 | 0.0447 | 0.0648 | 0.0796 | 0.0112 | 0.191 | 17 | 0.0081 | 0.02 | 0.152 | 0.02 | 0.02 |
| CS(=O)(=O)N(Cc1cnc(Br)s1)c1cc2oc(-c3ccc(F)cc3)c(-c3ncc[nH]3)c2cc1C1CC1 [Example 67, N-[(2-bromo-1,3-thiazol-5-yl)methyl]-N-[5-cyclopropyl-2-(4-fluorophenyl)-3-(1H-imidazol-2-yl)-1-benzofuran-6-yl]methanesulfonamide] | 0.012 | 0.256 | 0.0139 | 0.0139 | 0.0873 | 0.232 | 0.0772 | 0.0035 | 0.234 | 68 | 0.0079 | 0.0543 | 1.01 | 0.0543 | 0.0543 |
| COCCCN(c1cc2oc(-c3ccc(F)cc3)c(-c3ncc[nH]3)c2cc1C1CC1)S(C)(=O)=O [Example 69, N-[5-cyclopropyl-2-(4-fluorophenyl)-3-(1H-imidazol-2-yl)-1-benzofuran-6-yl]-N-(3-methoxypropyl)methanesulfonamide] | 0.029 | 0.059 | 0.0066 | 0.0066 | 0.0611 | 0.0828 | 0.0672 | 0.0065 | 0.205 | 32 | 0.0094 | 0.0139 | 0.259 | 0.0139 | 0.0139 |
| CCCCCN(c1cc2oc(-c3ccc(F)cc3)c(-c3ncc[nH]3)c2cc1C1CC1)S(C)(=O)=O [Example 70, N-[5-cyclopropyl-2-(4-fluorophenyl)-3-(1H-imidazol-2-yl)-1-benzofuran-6-yl]-N-pentylmethanesulfonamide] | 0.024 | 0.298 | 0.0356 | 0.0356 | 0.173 | 0.285 | 0.234 | 0.0085 | 0.069 | 8 | 0.0268 | 0.0418 | 0.641 | 0.0418 | 0.0418 |
| CCCCCCN(c1cc2oc(-c3ccc(F)cc3)c(-c3ncc[nH]3)c2cc1C1CC1)S(C)(=O)=O [Example 71, N-[5-cyclopropyl-2-(4-fluorophenyl)-3-(1H-imidazol-2-yl)-1-benzofuran-6-yl]-N-hexylmethanesulfonamide] | 0.028 | 1.07 | 0.039 | 0.039 | 0.409 | 0.596 | 0.377 | 0.0089 | 0.136 | 15 | 0.0725 | 0.0654 | 2.29 | 0.0654 | 0.0654 |
| CC(=O)CCCN(c1cc2oc(-c3ccc(F)cc3)c(-c3ncc[nH]3)c2cc1C1CC1)S(C)(=O)=O [Example 73, N-[5-cyclopropyl-2-(4-fluorophenyl)-3-(1H-imidazol-2-yl)-1-benzofuran-6-yl]-N-(4-oxopentyl)methanesulfonamide] | 0.015 | 0.055 | 0.0049 | 0.0049 | 0.027 | 0.0425 | 0.0219 | 0.0035 | 0.053 | 15 | 0.0029 | 0.0079 | 0.072 | 0.0079 | 0.0079 |
| CSCCN(c1cc2oc(-c3ccc(F)cc3)c(-c3ncc[nH]3)c2cc1C1CC1)S(C)(=O)=O [Example 74, N-[5-cyclopropyl-2-(4-fluorophenyl)-3-(1H-imidazol-2-yl)-1-benzofuran-6-yl]-N-[2-(methylthio)ethyl]methanesulfonamide] | 0.013 | 0.127 | 0.0065 | 0.0064 | 0.064 | 0.0865 | 0.0578 | 0.003 | 0.107 | 36 | 0.0045 | 0.0136 | 0.254 | 0.0136 | 0.0136 |
| CC(=O)CCCCN(c1cc2oc(-c3ccc(F)cc3)c(-c3ncc[nH]3)c2cc1C1CC1)S(C)(=O)=O [Example 77, N-[5-cyclopropyl-2-(4-fluorophenyl)-3-(1H-imidazol-2-yl)-1-benzofuran-6-yl]-N-(5-oxohexyl)methanesulfonamide] | 0.01 | 0.047 | 0.0057 | 0.0057 | 0.0325 | 0.0427 | 0.0268 | 0.005 | 0.049 | 10 | 0.0049 | 0.006 | 0.066 | 0.006 | 0.006 |
| CS(=O)(=O)N(CCCS(=O)(=O)N1CCOCC1)c1cc2oc(-c3ccc(F)cc3)c(-c3ncc[nH]3)c2cc1C1CC1 [Example 79, N-[5-cyclopropyl-2-(4-fluorophenyl)-3-(1H-imidazol-2-yl)-1-benzofuran-6-yl]-N-[3-(morpholin-4-ylsulfonyl)propyl]methanesulfonamide] | 0.02 | 0.062 | 0.0069 | 0.0069 | 0.0906 | 0.0728 | 0.0993 | 0.0055 | 0.141 | 26 | 0.0116 | 0.0147 | 0.117 | 0.0147 | 0.0147 |

Reference: patent US20160355530A1, “HEPATITIS C INHIBITORS AND USES THEREOF” (AbbVie Inc., priority 2010, published 2016)
